Earlier results, collected in patent US20040148013A1, “Stent-based delivery statins to prevent restenosis” (priority 2003, published 2004).

Tests used:
[1] = system: neointimal accumulation; settings: in vivo, rat carotid artery injury model
[2] = system: SMC

In the case of `CC(=O)O[C@H]1C(=O)[C@@]2(C)[C@H]([C@H](OC(=O)c3ccccc3)[C@]3(O)C[C@H](OC(=O)[C@H](O)[C@@H](NC(=O)c4ccccc4)c4ccccc4)C(C)=C1C3(C)C)[C@]1(OC(C)=O)CO[C@@H]1C[C@@H]2O` [Taxol®, Paclitaxel], the neointimal accumulation [1] is given as “inhibited neointimal accumulation”, the induction of apoptosis ([2]; biologically relevant concentrations) is given as “does not appear to induce apoptosis” and the SMC proliferation ([2]; in vitro) is given as “inhibited”. For the same molecule, the “platelet-derived growth factor-stimulated SMC migration” value ([2]; in vitro) was “inhibited”.
